In patent publication US11242337B2, “Compounds useful for treating gastrointestinal tract disorders” (Ardelyx, Inc., priority 2017, dated 2022):
Counter-ions that a name gives are not always drawn.

Key:
NHE3 [1] = molecular target: T1, NHE3 (Homo sapiens, UniProt P48764); experiment: Cell-based assay of NHE-3 activity (pre-incubation inhibition), human; details: human Preincubation
T1 construct: expressed in transfected cells
T1 sequence (P48764 26-834): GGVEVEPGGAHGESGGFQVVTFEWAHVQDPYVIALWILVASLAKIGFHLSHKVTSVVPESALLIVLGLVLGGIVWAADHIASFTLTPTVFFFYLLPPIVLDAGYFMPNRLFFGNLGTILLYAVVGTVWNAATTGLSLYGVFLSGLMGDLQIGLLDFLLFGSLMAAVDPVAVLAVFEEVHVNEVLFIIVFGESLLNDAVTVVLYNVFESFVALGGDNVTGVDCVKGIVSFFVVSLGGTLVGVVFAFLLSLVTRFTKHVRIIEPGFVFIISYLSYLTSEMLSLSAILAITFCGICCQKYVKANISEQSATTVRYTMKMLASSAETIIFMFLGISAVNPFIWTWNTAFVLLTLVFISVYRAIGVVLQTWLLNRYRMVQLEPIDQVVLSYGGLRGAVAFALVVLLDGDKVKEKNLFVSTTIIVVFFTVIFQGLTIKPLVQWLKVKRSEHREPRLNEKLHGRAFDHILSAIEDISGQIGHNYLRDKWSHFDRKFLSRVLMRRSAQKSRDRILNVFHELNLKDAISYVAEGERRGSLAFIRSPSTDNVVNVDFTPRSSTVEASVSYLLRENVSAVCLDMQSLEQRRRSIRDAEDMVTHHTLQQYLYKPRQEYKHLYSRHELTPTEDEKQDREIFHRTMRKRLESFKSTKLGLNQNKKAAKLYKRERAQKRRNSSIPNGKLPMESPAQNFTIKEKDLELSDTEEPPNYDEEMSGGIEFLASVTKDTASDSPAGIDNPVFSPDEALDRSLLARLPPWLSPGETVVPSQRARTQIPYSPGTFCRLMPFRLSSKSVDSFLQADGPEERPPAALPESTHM
T1 sequence (Q99653 2-195 partner limits assumed): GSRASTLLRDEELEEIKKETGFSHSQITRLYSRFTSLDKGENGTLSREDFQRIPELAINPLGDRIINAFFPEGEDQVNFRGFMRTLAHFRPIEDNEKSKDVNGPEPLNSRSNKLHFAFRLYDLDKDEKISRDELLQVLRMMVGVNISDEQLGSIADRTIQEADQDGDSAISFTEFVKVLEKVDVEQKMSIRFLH
Outline: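 PS120 fibroblasts stably expressing human NHE3 and NHERF2, loaded 30 min at 37 °C with 5 μM BCECF-AM in NH4Cl buffer, then acidified 10 min at room temperature in Na+-free buffer with 0–30 μM compound. Initial rate of BCECF fluorescence ratio change (FLIPR) per minute taken as Na+/H+ activity.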

NHE3 [2] = molecular target: T1, NHE3; experiment: Cell-based assay of NHE-3 activity (persistent inhibition), human; details: human Persistence, 60 min incubation then washout
Outline: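 PS120 fibroblasts expressing human NHE3 with NHERF2 exposed to 0-30 μM compound for 60 min at RT, then washed out; cells acid-loaded by NH4Cl prepulse with BCECF-AM and Na+-free buffer. Na+-driven pH recovery started 10 min post-washout; initial rate of BCECF ratio change (FLIPR) taken as activity.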

| Compound | % inhibition (NHE3 [1]) | IC50 (NHE3 [1]; 0-30 μM test compound) [nM] | % inhibition (NHE3 [2]) | IC50 (NHE3 [2]) [nM] | pIC50 (NHE3 [1]; 0-30 μM test compound) | pIC50 (NHE3 [2]) |
| --- | --- | --- | --- | --- | --- | --- |
| Cc1cc(S(=O)(=O)NCCOCCOCCNC(=O)NCCCCNC(=O)NCCOCCOCCNS(=O)(=O)c2cc(C)c(O[C@H]3c4cc(Cl)cc(Cl)c4C[C@@H]3N3CCC[C@@H](N)C3)cc2C)c(C)cc1O[C@H]1c2cc(Cl)cc(Cl)c2C[C@@H]1N1CCC[C@@H](N)C1 [Example 81, 3-[2-(2-[2-[(4-[[(1S,2S)-2-[(3R)-3-Aminopiperidin-1-yl]-4,6-dichloro-2,3-dihydro-1H-inden-1-yl]oxy]-2,5-dimethylbenzene)sulfonamido]ethoxy]ethoxy)ethyl]-1-[4-([[2-(2-[2-[(4-[[(1S,2S)-2-[(3R)-3-aminopiperidin-1-yl]-4,6-dichloro-2,3-dihydro-1H-inden-1-yl]oxy]-2,5-dimethylbenzene)sulfonamido]ethoxy]ethoxy)ethyl]carbamoyl]amino)butyl]urea] | C (>70%) | – | C (>70%) | 100 to 1000 | C (NHE3 pIC50 > 7) | – |
| Cc1cc(S(=O)(=O)NCCOCCOCCNC(=O)NCCCCNC(=O)NCCOCCOCCNS(=O)(=O)c2cc(C)c(O[C@H]3c4cc(Cl)cc(Cl)c4C[C@@H]3N(C)C)cc2C)c(C)cc1O[C@H]1c2cc(Cl)cc(Cl)c2C[C@@H]1N(C)C [Example 82, 3-[2-(2-[2-[(4-[[(1S,2S)-4,6-Dichloro-2-(dimethylamino)-2,3-dihydro-1H-inden-1-yl]oxy]-2,5-dimethylbenzene)sulfonamido]ethoxy]ethoxy)ethyl]-[4-([[2-(2-[2-[(4-[[(1S,2S)-4,6-dichloro-2-(dimethylamino)-2,3-dihydro-1H-inden-1-yl]oxy]-2,5-dimethylbenzene)sulfonamido]ethoxy]ethoxy)ethyl]carbamoyl]amino)butyl]urea] | B (40-70%) | – | C (>70%) | 100 to 1000 | C (NHE3 pIC50 > 7) | – |
| Cc1cc(S(=O)(=O)NCCOCCOCCNC(=O)NCCCCNC(=O)NCCOCCOCCNS(=O)(=O)c2cc(C)c(O[C@H]3c4cc(Cl)cc(Cl)c4C[C@@H]3N3CCC[C@@H](N)C3)c(F)c2)cc(F)c1O[C@H]1c2cc(Cl)cc(Cl)c2C[C@@H]1N1CCC[C@@H](N)C1 [Example 83, 1-[2-(2-[2-[(4-[[(1S,2S)-2-[(3R)-3-Aminopiperidin-1-yl]-4,6-dichloro-2,3-dihydro-1H-inden-1-yl]oxy]-3-fluoro-5-methylbenzene)sulfonamido]ethoxy]ethoxy)ethyl]-3-[4-([[2-(2-[2-[(4-[[(1S,2S)-2-[(3R)-3-aminopiperidin-1-yl]-4,6-dichloro-2,3-dihydro-1H-inden-1-yl]oxy]-3-fluoro-5-methylbenzene)sulfonamido]ethoxy]ethoxy)ethyl]carbamoyl]amino)butyl]urea; hydrochloride] | C (>70%) | – | C (>70%) | 100 to 1000 | C (NHE3 pIC50 > 7) | – |
| N[C@@H]1CCCN([C@H]2Cc3c(Cl)cc(Cl)cc3[C@@H]2Oc2c(F)cc(S(=O)(=O)NCCOCCOCCNC(=O)NCCCCNC(=O)NCCOCCOCCNS(=O)(=O)c3cc(F)c(O[C@H]4c5cc(Cl)cc(Cl)c5C[C@@H]4N4CCC[C@@H](N)C4)c(F)c3)cc2F)C1 [Example 85, 3-[2-(2-[2-[(4-[[(1S,2S)-2-[(3R)-3-Aminopiperidin-1-yl]-4,6-dichloro-2,3-dihydro-1H-1-inden-1-yl]oxy]-3,5-difluorobenzene)sulfonamido]ethoxy]ethoxy)ethyl]-1-[4-([[2-(2-[2-[(4-[[(1S,2S)-2-[(3R)-3-aminopiperidin-1-yl]-4,6-dichloro-2,3-dihydro-1H-inden-1-yl]oxy]-3,5-difluorobenzene)sulfonamido]ethoxy]ethoxy)ethyl]carbamoyl]amino)butyl]urea; bis(trifluoroacetic acid)] | C (>70%) | – | C (>70%) | – | – | – |
| Cc1cc(O[C@H]2c3cc(Cl)cc(Cl)c3C[C@@H]2N2CCC[C@@H](N)C2)c(F)cc1S(=O)(=O)NCCOCCOCCNC(=O)NCCCCNC(=O)NCCOCCOCCNS(=O)(=O)c1cc(F)c(O[C@H]2c3cc(Cl)cc(Cl)c3C[C@@H]2N2CCC[C@@H](N)C2)cc1C [Example 87, 3-[2-(2-[2-[(4-[[(1S,2S)-2-[(3R)-3-Aminopiperidin-1-yl]-4,6-dichloro-2,3-dihydro-1H-inden-1-yl]oxy]-5-fluoro-2-methylbenzene)sulfonamido]ethoxy]ethoxy)ethyl]-1-[4-([[2-(2-[2-[(4-[[(1S,2S)-2-[(3R)-3-aminopiperidin-1-yl]-4,6-dichloro-2,3-dihydro-1H-inden-1-yl]oxy]-5-fluoro-2-methylbenzene)sulfonamido]ethoxy]ethoxy)ethyl]carbamoyl]amino)butyl]urea; bis(trifluoroacetic acid)] | C (>70%) | – | C (>70%) | – | – | – |
| Cc1cc(S(=O)(=O)NCCOCCOCCNC(=O)NCCCCNC(=O)NCCOCCOCCNS(=O)(=O)c2cc(C)c(O[C@H]3c4cc(Cl)cc(Cl)c4C[C@@H]3N3CCC[C@@H](N)C3)cc2F)c(F)cc1O[C@H]1c2cc(Cl)cc(Cl)c2C[C@@H]1N1CCC[C@@H](N)C1 [Example 89, 3-[2-(2-[2-[(4-[[(1S,2S)-2-[(3R)-3-Aminopiperidin-1-yl]-4,6-dichloro-2,3-dihydro-1H-inden-1-yl]oxy]-2-fluoro-5-methylbenzene)sulfonamido]ethoxy]ethoxy)ethyl]-1-[4-([[2-(2-[2-[(4-[[(1S,2S)-2-[(3R)-3-aminopiperidin-1-yl]-4,6-dichloro-2,3-dihydro-1H-inden-1-yl]oxy]-2-fluoro-5-methylbenzene)sulfonamido]ethoxy]ethoxy)ethyl]carbamoyl]amino)butyl]urea; bis(trifluoroacetic acid)] | C (>70%) | – | C (>70%) | – | – | – |

Continued, values first:

| % inhibition (NHE3 [1]) | IC50 (NHE3 [1]; 0-30 μM test compound) [nM] | % inhibition (NHE3 [2]) | IC50 (NHE3 [2]) [nM] | pIC50 (NHE3 [1]; 0-30 μM test compound) | pIC50 (NHE3 [2]) | Compound |
| --- | --- | --- | --- | --- | --- | --- |
| B (40-70%) | 100 to 1000 | B (40-70%) | 100 to 1000 | – | – | Cc1cc(S(=O)(=O)NCCOCCOCCNC(=O)NCCCCNC(=O)NCCOCCOCCNS(=O)(=O)c2cc(C)c(O[C@H]3c4cc(Cl)cc(Cl)c4C[C@@H]3N(C)C)c(C)c2)cc(C)c1O[C@H]1c2cc(Cl)cc(Cl)c2C[C@@H]1N(C)C [Example 80] |
| C (>70%) | – | C (>70%) | – | C (NHE3 pIC50 > 7) | C (NHE3 pIC50 > 7) | Cc1cc(S(=O)(=O)NCCOCCOCCNC(=O)NCCCCNC(=O)NCCOCCOCCNS(=O)(=O)c2cc(C)c(O[C@H]3c4cc(Cl)cc(Cl)c4C[C@@H]3N(C)C)c(F)c2)cc(F)c1O[C@H]1c2cc(Cl)cc(Cl)c2C[C@@H]1N(C)C [Example 84, 1-[2-(2-[2-[(4-[[(1S,2S)-4,6-Dichloro-2-(dimethylamino)-2,3-dihydro-1H-inden-1-yl]oxy]-3-fluoro-5-methylbenzene)sulfonamido]ethoxy]ethoxy)ethyl]-3-[4-([[2-(2-[2-[(4-[[(1S,2S)-4,6-dichloro-2-(dimethylamino)-2,3-dihydro-1H-inden-1-yl]oxy]-3-fluoro-5-methylbenzene)sulfonamido]ethoxy]ethoxy)ethyl]carbamoyl]amino)butyl]urea] |
| C (>70%) | – | C (>70%) | – | C (NHE3 pIC50 > 7) | C (NHE3 pIC50 > 7) | CN(C)[C@H]1Cc2c(Cl)cc(Cl)cc2[C@@H]1Oc1c(F)cc(S(=O)(=O)NCCOCCOCCNC(=O)NCCCCNC(=O)NCCOCCOCCNS(=O)(=O)c2cc(F)c(O[C@H]3c4cc(Cl)cc(Cl)c4C[C@@H]3N(C)C)c(F)c2)cc1F [Example 86] |
